Measured values taken from patent US20140271770A1, “Methods And Compositions For Treating Post-Operative Pain Comprising Clonidine” (WARSAW ORTHOPEDIC, INC., priority 2013, published 2014).

Experiment: 14 day pharmacokinetic study, clonidine strips implanted in intermuscular pockets, plasma clonidine by LC/MS/MS
Assay type: in vivo, beagle dogs
Settings: mannitol as excipient in the clonidine strips
From the text: Clonidine strips were surgically implanted in intermuscular pockets in beagle dogs to evaluate the in vivo clonidine elution and plasma clonidine concentrations. Four male and four female dogs were divided into two groups of two (per sex). Group 1 received 6 strips of formulation 640-51 (5% clonidine HCl, 5% mannitol, 60:40 LCL 5A polymer, micronized API) and Group 2 received 6 strips of formulation 640-73 (4% clonidine HCl, 7.5% mannitol, 60:40 LCL 5A polymer, milled 25 micron API).
Blood was drawn at 30 minutes and 1, 2, 4, 8, and 24 hours post-implant. Blood was then drawn daily through day 7, and again at days 10 and 14. The blood was processed to plasma and the clonidine concentration in the plasma was determined by high performance liquid chromatography and tandem mass spectroscopy (LC/MS/MS).

- effect on drug release within the first 72 hours: speeds up drug release
Structure (SMILES): OC[C@@H](O)[C@@H](O)[C@H](O)[C@H](O)CO [Mannitol]
